In patent publication US20140179780A1, “PHARMACEUTICAL COMPOSITION CONTAINING OLEANOLIC ACID ACETATE AS AN ACTIVE INGREDIENT FOR PREVENTING OR TREATING TLR- OR IL-6-MEDIATED DISEASES” (Korea Research Institute of Bioscience and Biotechnology, priority 2011, published 2014):
Values joined by “and” are separate entries in the source; they are usually repeats but may differ in a detail not shown here. Equal values may be shown once. Read-outs that look alike come from different tables or passages of the source.

Tests used:
[1] = system: IL-6-induced STAT3 transcriptional activation; assay: IL-6 reactive STAT3 reporter gene (luciferase) assay in Hep3B cells; assay type: cell-based; conditions: for Effect on STAT3 luciferase activity (in words): IL-6; for Inhibition (%) of STAT3 luciferase activity / IC50: IL-6 10 ng/ml; for IC50: read-out: IC50, inhibition of IL-6-induced STAT3 luciferase activity
Experimental: pStat3-Luc and pcDNA3.1(+) (Clontech laboratories, Palo Alto, Calif.) were transfected into Hep3B cells (ATCC HB-8064) using lipofectamine plus (Invitrogen, Carlsbad, Calif., USA) at the same time. 2 days later, the cells were treated with hygromycin (100 μg/ml) to obtain clones stably expressing luciferase. Luciferase analysis was performed to examine whether luciferase is stably expressed in the clones.
The transfected cells in the clones obtained in Example 5-1 were cultured in DMEM (GIBCO 119950965) under serum starvation, and the samples were treated for 1 hour as follows. 10 ng/ml IL-6 (R&D system, USA) was added thereto, followed by cultivation for 12 hours.
The cultured cells were washed with PBS and 50 μl of lysis buffer (luciferase assay system, promega, USA) was added thereto, followed by stirring for 20 minutes. 30-100 μl of luciferase substrate (luciferase assay system, promega, USA) was added to measure […] using a luminometer (EG&G BERTHOLD, USA) within 5 minutes (Tables 5 and 6).
In detail, the inhibitory effects of oleanolic acid or oleanolic acid acetate on STAT3 luciferase activity was measured in the same manner as in Example 5-2, except that oleanolic acid or oleanolic acid acetate was treated as a sample in an amount of 0.1, 1, 3, 6 or 10 μM, respectively and compared with each other (FIG. 14).

[2] = system: poly(I:C)-induced NFkB/AP-1 dependent SEAP activity (TLR3 signaling pathway); assay: Poly(I:C)-induced NFkB/AP-1-dependent SEAP activity in THP1-Blue-CD14 cells; assay type: cell-based, Human; conditions: for Effect on poly(I:C)-induced SEAP activity (in words): THP-1-blue cells
Experimental: (§1) THP1-Blue-CD14 cells were seeded at a density of 2×10^5 cells/100 μl in a 96-well plate, and cultured at 37° C. for 3 hours.

[3] = system: poly(I)-induced NFkB/AP-1 dependent SEAP activity (TLR7 signaling pathway); assay: Poly(I)-induced NFkB/AP-1-dependent SEAP activity in THP1-Blue-CD14 cells; assay type: cell-based, Human; conditions: for Effect on poly(I)-induced SEAP activity (in words): THP-1-blue cells
Experimental: as §1

STAT3 phosphorylation = assay: IL-6-induced STAT3 phosphorylation in Hep3B cells (Western blot); assay type: cell-based; conditions: IL-6 20 ng/ml 20 minutes, FIGS. 8a, 8b
Experimental: Hep3B cells were seeded in a 6-well plate at a density of 5×10^5 per well, and cultured to a confluency of 80% in a culture plate. Then, the medium was replaced with serum-free medium and further cultured for 12 hours, and the samples were treated for 60 minutes as follows.
Next, 20 ng/ml of IL-6 was treated, and reacted for 20 minutes, and 40 μl of lysis buffer (pH 8, 20 mM Tris-HCl, 137 mM NaCl, 10% glycerol, 1% Triton X-100, 1 mM Na3VO4, 2 mM EDTA, 1 mM APMSF, 20 μM leupeptin, 20 μg/ml aprotonin; Sigma, USA) was used for cell lysis. Centrifugation (13000 g, 15 minutes) was performed to obtain supernatants containing proteins. Protein concentrations were quantified using a DC protein assay kit (Bio-Rad, USA), and proteins were loaded in a 4˜12% SDS polyacrylamide gel (SDS-PAGE) and electrophoresis was performed at 175 mA for 2 hours. After electrophoresis, the proteins of the gel were transferred onto a PVDF membrane (Westran S, pore size […]; Whatman, USA) at 35 V for 90 minutes. The transferred membrane was blocked with Tris-buffer (T-TBS; 50 mM Tri-HCl, pH 7.6, 150 mM NaCl, 0.2% Tween-20, 5% skim milk; Sigma, USA) at room temperature for 1 hour, and washed with T-TBS five times. The membrane was treated with polyclonal antibody of phospho-STAT3 (1:1000 dilution) as a primary antibody at 4° C. 12 hours. […]

[4] = system: osteoclast differentiation from bone marrow macrophages; assay: RNAKL-induced osteoclast differentiation of bone marrow macrophages (TRAP staining); assay type: cell-based, mouse; conditions: for Osteoclast differentiation (number and size of TRAP-positive osteoclasts): M-CSF 30 ng/ml, RNAKL 50 ng/ml, 4 days
Experimental: Femurs and tibia were removed from 5-week-old mice, and the bone cavity was washed using a 1 cc syringe to obtain bone marrow cells. The isolated bone marrow cells were cultured in α-MEM (α-minimum essential medium) containing 10% FBS, antibiotic, M-CSF (30 ng/ml) for 3 days. 3 days later, the adherent cells were used as bone marrow macrophage (BMM). The bone marrow macrophages were cultured by addition of M-CSF (30 ng/ml) and an osteoclast differentiation factor RNAKL (Receptor activator of nuclear factor kappa-B ligand) (50 ng/ml) and treated with the adzuki bean extract and oleanolic acid acetate at each concentration. 4 days later, the cultured cells were stained with a TRAP solution (Sigma Aldrich, USA), and red stained cells were determined as differentiated osteoclasts.

[5] = Homo sapiens, sample 30 μM, poly(I:C) 100 μg/ml, read-out: Inhibition (%) of poly(I:C)-induced SEAP activity
[6] = Homo sapiens, sample 60 μM, poly(I:C) 100 μg/ml, read-out: Inhibition (%) of poly(I:C)-induced SEAP activity
[7] = Homo sapiens, sample 30 μM, poly(I) 50 μg/ml, read-out: Inhibition (%) of poly(I)-induced SEAP activity
[8] = Homo sapiens, sample 60 μM, poly(I) 50 μg/ml, read-out: Inhibition (%) of poly(I)-induced SEAP activity
[9] = Homo sapiens, read-out: Inhibition (%) of poly(I:C)-induced SEAP activity
[10] = Homo sapiens, read-out: Inhibition (%) of poly(I)-induced SEAP activity

## OC[C@H]1O[C@@H](Oc2cc(O)c3c(c2)O[C@H](c2ccc(O)c(O)c2)[C@@H](O)C3)[C@H](O)[C@@H](O)[C@@H]1O [Catechin-7-glucopyranoside, catechin-7-glucopyranoside, reference compound]
[1]
  Effect on STAT3 luciferase activity (in words): did not show the inhibitory effect
[1]; sample 30 μM
  Inhibition (%) of STAT3 luciferase activity: 8.3%
[1]; sample 60 μM
  Inhibition (%) of STAT3 luciferase activity: 15.9%
[1]; sample 100 μM
  Inhibition (%) of STAT3 luciferase activity: 0.4%
[2]
  Effect on poly(I:C)-induced SEAP activity (in words): did not affect
[2]; sample 30 μM, poly(I:C) 100 μg/ml
  Inhibition (%) of poly(I:C)-induced SEAP activity: 13.19%
[2]; sample 60 μM, poly(I:C) 100 μg/ml
  Inhibition (%) of poly(I:C)-induced SEAP activity: 11.16%
[3]
  Effect on poly(I)-induced SEAP activity (in words): did not affect

## C[C@@H]1O[C@@H](OC[C@H]2O[C@@H](Oc3c(-c4ccc(O)c(O)c4)oc4cc(O)cc(O)c4c3=O)[C@H](O)[C@@H](O)[C@@H]2O)[C@H](O)[C@H](O)[C@H]1O [Rutin, rutin, reference compound]
[2]; [5]
  inhibition at 30 µM: < 0%
[2]; [6]
  inhibition at 60 µM: < 0%
[3]; [7]
  inhibition at 30 µM: < 0%
[3]; [8]
  inhibition at 60 µM: < 0%

## O=c1cc(-c2ccc(O)c(O)c2)oc2cc(O)cc(O)c12 [Luteolin, reference compound]
[2]; [5]
  inhibition at 30 µM: 47.7%
[2]; [6]
  inhibition at 60 µM: 67.3%
[3]; [7]
  inhibition at 30 µM: 79.2%
[3]; [8]
  inhibition at 60 µM: 96.3%

## O=c1c(-c2ccc(O)cc2)coc2cc(O)cc(O)c12 [Genistein, reference compound]
[1]; sample 100 μM
  Inhibition (%) of STAT3 luciferase activity: 95.2% and 95.1% and 95.4%

## CC1(C)CC[C@]2(C(=O)O)CC[C@]3(C)C(=CC[C@@H]4[C@@]5(C)CC[C@H](O)C(C)(C)[C@@H]5CC[C@]43C)[C@@H]2C1 [oleanolic acid]
[1]; sample 10 μM
  Inhibition (%) of STAT3 luciferase activity: approximately 14%

## CC[C@H](/C=C/[C@@H](C)[C@H]1CC[C@H]2[C@@H]3CC=C4C[C@@H](O)CC[C@]4(C)[C@H]3CC[C@]12C)C(C)C [Stigmasterol, (3S,8S,9S,10R,13R,14S,17R)-17-[(E,2R,5S)-5-ethyl-6-methylhept-3-en-2-yl]-10,13-dimethyl-2,3,4,7,8,9,11,12,14,15,16,17-dodecahydro-1H-cyclopenta[a]phenanthren-3-ol]
[1]; Homo sapiens
  IC50: 90000 nM
[1]
  Effect on STAT3 luciferase activity (in words): inhibited STAT3 luciferase activity in a concentration dependent manner
[1]; sample 60 μM
  Inhibition (%) of STAT3 luciferase activity: 29.4%
[1]; sample 100 μM
  Inhibition (%) of STAT3 luciferase activity: 58.4%
[2]; [9]
  inhibition at 30 µM: 8.71%
  inhibition at 60 µM: 4.92%
  inhibition at 100 µM: < 0%
[2]
  Effect on poly(I:C)-induced SEAP activity (in words): did not show the inhibitory activity
[3]; [10]
  inhibition at 30 µM: < 0%
  inhibition at 60 µM: 2.63%
  inhibition at 100 µM: 1.42%
[3]
  Effect on poly(I)-induced SEAP activity (in words): did not show the inhibitory activity

## CC(=O)O[C@H]1CC[C@@]2(C)C(CC[C@]3(C)[C@@H]2CC=C2[C@H]4CC(C)(C)CC[C@]4(C(=O)O)CC[C@]23C)C1(C)C (stereo partly drawn) [Oleanolic acid acetate, 4aS,6aR,6aS,6bR,8aR,10S,12aR,14bS)-10-hydroxy-2,2,6a,6b,9,9,12a-heptamethyl-1,3,4,5,6,6a,7,8,8a,10,11,12,13,14b-tetradecahydropicene-4a-carboxylic acid acetate]
[1]; Homo sapiens
  IC50: < 1000 nM
[1]
  Effect on STAT3 luciferase activity (in words): inhibited STAT3 luciferase activity in a concentration dependent manner
  IC50: 900 nM
[1]; sample 1 μM
  Inhibition (%) of STAT3 luciferase activity: 51.2%
[1]; sample 3 μM
  Inhibition (%) of STAT3 luciferase activity: 84.3%
[1]; sample 6 μM
  Inhibition (%) of STAT3 luciferase activity: 95.1%
[1]; sample 10 μM
  Inhibition (%) of STAT3 luciferase activity: 97.2%
[1]; sample 30 μM
  Inhibition (%) of STAT3 luciferase activity: 100%
STAT3 phosphorylation
  IL-6-induced STAT3 phosphorylation: showed the inhibitory effects
[2]; [9]
  inhibition at 10 µM: < 0%
  inhibition at 30 µM: 9.28%
  inhibition at 60 µM: 47.2%
  inhibition at 100 µM: 64.4%
[2]
  Effect on poly(I:C)-induced SEAP activity (in words): significantly inhibited
[4]; 10 μM
  Osteoclast differentiation: remarkable effect
[4]
  Osteoclast differentiation (number and size of TRAP-positive osteoclasts): remarkably inhibited
[4]; listed as compound of Chemical Formula 1
  Osteoclast differentiation (number and size of TRAP-positive osteoclasts): reduced in a concentration-dependent manner
[3]; [10]
  inhibition at 10 µM: 2.02%
  inhibition at 30 µM: 43.9%
  inhibition at 60 µM: 74.6%
  inhibition at 100 µM: 83%
[3]
  Effect on poly(I)-induced SEAP activity (in words): significantly inhibited
